From PubChem BioAssay (NCI) come the findings set out here.

Test systems include A549 NSCLC; CAKI-1 renal; MDA-MB-231 breast; RPMI-8226 leukemia; SK-MEL-2 melanoma; SN12C renal; T-47D breast; CCRF-CEM leukemia; SK-MEL-28 melanoma; MALME-3M melanoma.
Holding throughout (test): inhibition of tumour cell growth, NCI panel, 48 h

Values joined by “and” are separate entries in the source; they are usually repeats but may differ in a detail not shown here. Equal values may be shown once.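 Compound exposure: 48 hours, 5 concentrations, 96-well plates. The concentration for 50% growth inhibition is given as GI50. Definition used: TGI = concentration required for complete inhibition of growth.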

Turning to `O=C1Nc2ccc(O)cc2/C1=C\c1ccncc1`, the GI50 was 26.2 µM in the test on A549 NSCLC; 17.9 µM in the test on CAKI-1 renal; 14.6 µM in the test on MDA-MB-231 breast; 34.1 µM in the test on RPMI-8226 leukemia; 14.5 µM with SK-MEL-2 melanoma; 16.2 µM with SN12C renal. The GI50 in the test with T-47D breast is 26.9 µM. Moreover, the TGI with A549 NSCLC is 82.8 µM; in the test with CAKI-1 renal it was 54.2 µM; in the test with MDA-MB-231 breast, 39.4 µM; in the test on RPMI-8226 leukemia it was more than 100 µM; in the test with SK-MEL-2 melanoma, 43.1 µM; in the test with SN12C renal, 44.3 µM. Further, the TGI with T-47D breast is more than 100 µM.

As to `C=C1C(=O)O[C@@H]2C[C@@H]1CC[C@]1(C)O[C@H]1CC/C(C)=C/CC[C@@]2(C)O`, the GI50 was 25.3 µM in the test with A549 NSCLC; 18.7 µM with CAKI-1 renal; more than 100 µM with CCRF-CEM leukemia; 21.4 µM in the test with MDA-MB-231 breast; 6.58 µM in the test on RPMI-8226 leukemia; 64.4 µM in the test with SK-MEL-2 melanoma. Further, the GI50 was 18.6 µM with SN12C renal and 28.8 µM with T-47D breast. The TGI was 83.7 µM in the test with A549 NSCLC; 37 µM in the test on CAKI-1 renal; more than 100 µM in the test on CCRF-CEM leukemia; 48.8 µM in the test on MDA-MB-231 breast; more than 100 µM with RPMI-8226 leukemia; more than 100 µM with SK-MEL-2 melanoma. The TGI in the test with SN12C renal is 41.1 µM; in the test with T-47D breast, 58.7 µM.

On to `c1ccc(COCC[P+](c2ccccc2)(c2ccccc2)c2ccccc2)cc1`, for which the GI50 in the test on A549 NSCLC was 0.584 µM; in the test with CAKI-1 renal, 5.4 µM; in the test with CCRF-CEM leukemia, 1.36 µM; in the test on MDA-MB-231 breast, 2.36 µM; in the test with RPMI-8226 leukemia, 0.242 µM; with SK-MEL-2 melanoma, 1.93 µM. Moreover, the GI50 in the test on SK-MEL-28 melanoma was 1.59 µM; with SN12C renal, 2.3 µM; in the test with T-47D breast, 0.259 µM. Besides, the TGI in the test on A549 NSCLC is 10.1 µM; in the test with CAKI-1 renal, 23.1 µM; in the test on CCRF-CEM leukemia, 14.1 µM; with MDA-MB-231 breast, 14.2 µM; in the test with RPMI-8226 leukemia it was 1.9 µM; in the test with SK-MEL-2 melanoma, 4.96 µM. The results for the TGI in the test on SK-MEL-28 melanoma, with SN12C renal and in the test on T-47D breast were 12.2 µM, 11.3 µM and 21.6 µM, respectively.

As to `COc1cccc(CCNC(=O)CC(c2ccccc2)(c2ccccc2)c2ccccc2)c1`, the GI50 was 4.11 µM in the test on A549 NSCLC; 3.16 µM in the test on CAKI-1 renal; 8.16 µM with CCRF-CEM leukemia; more than 100 µM in the test with MDA-MB-231 breast; 4.98 µM with RPMI-8226 leukemia; 4.41 µM in the test on SK-MEL-2 melanoma. Besides, the GI50 with SK-MEL-28 melanoma and with T-47D breast was more than 100 µM throughout. Further, the TGI with A549 NSCLC is 96.5 µM; in the test with CAKI-1 renal it was 50.9 µM; in the test with CCRF-CEM leukemia, more than 100 µM; in the test on MDA-MB-231 breast, more than 100 µM; with RPMI-8226 leukemia it was more than 100 µM; in the test on SK-MEL-2 melanoma, more than 100 µM. Further, the TGI in the test on SK-MEL-28 melanoma and in the test on T-47D breast was more than 100 µM throughout.

In the case of `CS(=O)(=O)O[C@H]1C(=O)N(c2cc3c4ccccc4ccc3c3ccccc23)[C@@H]1c1ccccn1`, the GI50 in the test on A549 NSCLC is 0.665 µM; with CAKI-1 renal, 0.413 µM; in the test with CCRF-CEM leukemia it was 0.515 µM; in the test with MDA-MB-231 breast it was 1.07 µM; in the test on RPMI-8226 leukemia, 0.467 µM; in the test with SK-MEL-2 melanoma, 0.687 µM. The figures for the GI50 in the test with SK-MEL-28 melanoma, in the test with SN12C renal and with T-47D breast were 0.783 µM, 0.737 µM and 0.44 µM, respectively. Further, the TGI in the test with A549 NSCLC is more than 100 µM; in the test on CAKI-1 renal, more than 100 µM; in the test on CCRF-CEM leukemia it was more than 100 µM; in the test on MDA-MB-231 breast, 14 µM; in the test with RPMI-8226 leukemia, more than 100 µM; in the test on SK-MEL-2 melanoma, more than 100 µM. Moreover, the TGI with SK-MEL-28 melanoma, in the test on SN12C renal and with T-47D breast was more than 100 µM each time.

Take `CN1C(=O)/C(=C2\S/C(=N\c3nnc(-c4ccccc4)o3)NC2=O)c2ccccc21`: the GI50 is 43.9 µM with A549 NSCLC; 51.8 µM in the test with CAKI-1 renal; 63.7 µM in the test on CCRF-CEM leukemia; more than 100 µM with MDA-MB-231 breast; more than 100 µM in the test with RPMI-8226 leukemia; more than 100 µM with SK-MEL-2 melanoma. The GI50 with SK-MEL-28 melanoma, in the test on SN12C renal and with T-47D breast was more than 100 µM in each case. For the same compound, the TGI in the test on A549 NSCLC, in the test on CAKI-1 renal, with CCRF-CEM leukemia, in the test on MDA-MB-231 breast, in the test with RPMI-8226 leukemia and in the test on SK-MEL-2 melanoma was more than 100 µM throughout. Besides, the TGI in the test on SK-MEL-28 melanoma, with SN12C renal and with T-47D breast was more than 100 µM throughout.

Consider `CCNC(=O)Oc1ccc(/C(=C(\C)c2ccc(Cl)cc2)c2ccc(OCCN(CC)CC)cc2)cc1`, for which the GI50 in the test with A549 NSCLC was 5.63 µM; in the test with CCRF-CEM leukemia, 3.38 µM; in the test on MALME-3M melanoma, 1.7 µM; in the test with MDA-MB-231 breast, 3.02 µM; with RPMI-8226 leukemia, 2.4 µM; in the test with SK-MEL-2 melanoma, 5.01 µM. Also, the GI50 was 1.74 µM in the test with SK-MEL-28 melanoma, 4.42 µM in the test with SN12C renal and 2.16 µM in the test with T-47D breast. For the same compound, the TGI in the test with A549 NSCLC was found to be 18.4 µM; in the test on CCRF-CEM leukemia, 12.2 µM; with MALME-3M melanoma, 3.61 µM; in the test with MDA-MB-231 breast, 8.17 µM; in the test on RPMI-8226 leukemia, 6 µM; in the test on SK-MEL-2 melanoma, 17.6 µM. Also, the values for the TGI in the test with SK-MEL-28 melanoma, in the test on SN12C renal and in the test with T-47D breast were 3.52 µM, 16.1 µM and 12.5 µM, respectively.

Consider `CCC(C)C(=O)O[C@H]1C(=O)O[C@@H]2C[C@H]3C(C)=CC(=O)[C@@H](O)[C@]3(C)[C@H]3[C@@H](O)[C@H](O)[C@@]4(C)OC[C@]32[C@@H]14` (stereo partly specified), for which the TGI is 10.7 µM with A549 NSCLC; less than 0.024 µM in the test on MALME-3M melanoma; 0.388 µM in the test with MDA-MB-231 breast; less than 0.0266 µM with RPMI-8226 leukemia; less than 0.0507 µM in the test on SK-MEL-2 melanoma; 0.542 µM in the test on SK-MEL-28 melanoma. Further, the TGI with SN12C renal is less than 0.0135 µM; with T-47D breast, less than 0.0105 µM.

Turning to `Cc1cc(O[C@@H]2O[C@@H](C)[C@H](O)[C@@H](O)[C@H]2O)c2c3c(c(O[C@@H]4O[C@@H](C)[C@H](O)[C@@H](O)[C@H]4O)cc2c1)C(=O)c1c(O)cccc1C3=O`, the GI50 with A549 NSCLC, in the test with CCRF-CEM leukemia, with MALME-3M melanoma, with MDA-MB-231 breast, in the test with RPMI-8226 leukemia and in the test on SK-MEL-2 melanoma was more than 30 µM each time. The GI50 with SK-MEL-28 melanoma, in the test on SN12C renal and in the test on T-47D breast was more than 30 µM each time. In addition, the TGI with A549 NSCLC, in the test with CCRF-CEM leukemia, in the test with MALME-3M melanoma, with MDA-MB-231 breast, in the test on RPMI-8226 leukemia and in the test with SK-MEL-2 melanoma was more than 30 µM each time. The TGI in the test with SK-MEL-28 melanoma, in the test with SN12C renal and in the test with T-47D breast was more than 30 µM each time.

On to `COc1ccc(NC(=S)C#N)cc1`, for which the TGI with A549 NSCLC, in the test on CAKI-1 renal, in the test on CCRF-CEM leukemia, in the test on MDA-MB-231 breast, in the test on RPMI-8226 leukemia and in the test with SK-MEL-2 melanoma was more than 100 µM each time. Besides, the TGI in the test on SK-MEL-28 melanoma, in the test on SN12C renal and in the test on T-47D breast was more than 100 µM in each case.

As for `COc1ccc(C2CC(c3ccccc3)=NN2C(=O)c2cc(OC)c(OC)c(OC)c2)cc1O` (stereo unspecified), the GI50 in the test with A549 NSCLC is 0.545 µM; in the test on CAKI-1 renal, 0.925 µM; in the test with CCRF-CEM leukemia, 0.473 µM; in the test with MALME-3M melanoma, 41.2 µM; in the test on MDA-MB-231 breast it was 0.902 µM; with RPMI-8226 leukemia, 0.259 µM. In addition, the GI50 was 4.74 µM in the test with SK-MEL-2 melanoma, 0.597 µM in the test with SK-MEL-28 melanoma and 0.766 µM in the test on SN12C renal. Besides, the TGI in the test with A549 NSCLC is more than 100 µM; with CAKI-1 renal it was more than 100 µM; with CCRF-CEM leukemia it was more than 31.9 µM; in the test with MALME-3M melanoma, more than 100 µM; in the test on MDA-MB-231 breast, 18.1 µM; in the test with RPMI-8226 leukemia, 5.47 µM. The TGI was more than 42 µM in the test on SK-MEL-2 melanoma, more than 47.6 µM with SK-MEL-28 melanoma and 34.4 µM in the test on SN12C renal.

As for `CC(=O)NC(CS)C(=O)O` (stereo unspecified), the GI50 in the test on A549 NSCLC, in the test with CAKI-1 renal, with MALME-3M melanoma, with RPMI-8226 leukemia, in the test with SK-MEL-2 melanoma and in the test on SK-MEL-28 melanoma was more than 100 µM throughout. In addition, the GI50 in the test with SN12C renal and in the test with T-47D breast was more than 100 µM in each case. Moreover, the TGI in the test with A549 NSCLC is > 100 µM and 69600 µM; in the test with CAKI-1 renal it was > 100 µM and 53400 µM; in the test on CCRF-CEM leukemia, more than 100 µM; in the test with MALME-3M melanoma it was > 100 µM and 54500 µM; with RPMI-8226 leukemia it was > 100 µM and 3720 µM; in the test with SK-MEL-2 melanoma, > 100 µM and 66300 µM. Further, the TGI in the test on SK-MEL-28 melanoma, with SN12C renal and with T-47D breast was more than 100 µM in each case.

In the case of `Cc1ccc(/C=C(/C#N)n2nnc3ncccc32)cc1`, the GI50 with A549 NSCLC is 2.58 µM; in the test with CCRF-CEM leukemia, 3.08 µM; with MALME-3M melanoma it was 1.76 µM; with MDA-MB-231 breast, 2.41 µM; in the test on RPMI-8226 leukemia, 3 µM; with SK-MEL-2 melanoma, 2.47 µM. Further, the GI50 was 2.17 µM in the test on SK-MEL-28 melanoma, 2.6 µM in the test with SN12C renal and 1.92 µM in the test on T-47D breast. The TGI is 77.5 µM in the test with A549 NSCLC; more than 100 µM in the test on CCRF-CEM leukemia; 26 µM with MALME-3M melanoma; 8.44 µM in the test on MDA-MB-231 breast; 9.73 µM in the test on RPMI-8226 leukemia; 8.66 µM in the test with SK-MEL-2 melanoma. For the same compound, the TGI in the test with SK-MEL-28 melanoma was 31.3 µM; in the test with SN12C renal, 9.66 µM; in the test with T-47D breast, 15.8 µM.
